Assays:
[1] = test system: isolated hearts of Wistar rats; experiment: H2O2-induced development of arrhythmias in isolated rat hearts after 3 weeks oral SkQ1; assay type: in vivo; details: for normal rhythm maintained, % of the experiments: hydrogen peroxide 100 μm into coronary bed
Procedure: Wistar rats received preparation SkQ1 daily for 3 weeks at doses of 2.0, 0.2 and 0.02 nmol/kg body weight by its addition to the curd. In the control group of animals, the feed was supplemented with sodium bromate in a similar dose. Experiments on isolated hearts were performed 1-2 days after the end of administration of the preparations by a standard technique under conditions of retrograde perfusion of the heart with a controlled rate of perfusion and a measurement of spontaneous heart rate. The effect of SkQ1 on the incidence of arrhythmias induced by injection of hydrogen peroxide (100 μm) into the coronary bed of hearts was studied. This model reproduces some features of a situation of oxidative stress that develops during reperfusion of ischemic heart.

Wistar male rats = experiment: Regional myocardial ischemia and reperfusion in anesthetized rats; assay type: in vivo, rat
Procedure: To study a possibility of reduction of the irreversible damage of cardiomyocytes by SkQ1 in vivo a model of regional myocardial ischemia and reperfusion in anesthetized rats was used. Experiments were performed on Wistar male rats weighing 300-450 grams, fed a standard diet. In the control animals during three weeks received NaBr dissolved in 0.1 M phosphate buffer (pH 6.0), at a dose of 250 nmol/kg body weight/day. Animals of the experimental group during three weeks together with food received SkQ1 dissolved in 0.1 M phosphate buffer (pH 6.0), at a dose of 250 nmol/kg body weight/day.
In urethane-anesthetized animals ([…] body weight intraperitoneally administered), artificial ventilation of the lungs with room air with added oxygen at a rate of 60-80 beats per minute was carried out. Indicators of the acid-base balance of arterial blood (pH, pO2 and pCO2) during the entire experiment were controlled with the use of acid-base gas analyzer ABL-30 (Radiometer) and maintained at a physiological level.
Catheterization of the carotid artery was performed for recording arterial pressure (Mingograf 804, Siemens-Elema). The chest was opened by longitudinal dissection of the sternum and the heart was freed from the pericardium. To induce regional myocardial ischemia, the left ventricle was pierced with an atraumatic needle 5-0 under the left appendage in the direction perpendicular to long axis of the heart. Tightening the ligature at the anterior descending coronary artery (ADA) located deep in the pierced myocardium ceased blood supply to a portion of the myocardium, weakening of the ligature restored coronary flow.
The dissection is followed by a 30-min period of stabilization of hemodynamic parameters (the initial state). Then anterior descending coronary artery was occluded for 40 min followed by 60 min of reperfusion. At the end of the experiment, to identify the risk zone (RZ) and the intact zone, anterior descending coronary artery was occluded and a 2% Evans solution (2 ml) was injected as a bolus into the jugular vein. Then the heart was cut out and the left ventricle (LV) was separated and frozen at −20° C.
To measure infarct size, the method for histochemical localization of the risk zone (RZ) and myocardial infarction (MI) by tissue staining with 2,3,5-triphenyltetrazolium chloride (TFT) was used (Kitakaze M., Takashima S., Funaya H., Minamino T., Node K., Shinozaki Y., Mori H., Hori M., 1997. Temporary acidosis during reperfusion limits myocardial infarct size. Am. J. Physiol.; 272: H2071-H207). […] The obtained samples were scanned, MI and RZ sizes were determined by the method of computer-assisted planimetry using the Imagecal program. […]

rat heart = details: pre-perfusion of rat heart; Kutala et al. 2006; cited from earlier work
[2] = SkQ1 250 nmol/kg body weight/day with food for three weeks, initial state

CC1=C(C)C(=O)C(CCCCCCCCCC[P+](c2ccccc2)(c2ccccc2)c2ccccc2)=CC1=O [SkQ1]
normal rhythm maintained, % of the experiments ([1]; SkQ1 0.02 nmol/kg daily for 3 weeks): 55% | normal rhythm maintained, % of the experiments ([1]; SkQ1 0.2 nmol/kg daily for 3 weeks): 70% | number of hearts with documented normal rhythm ([1]; SkQ1 0.2 nmol/kg, 23 experiments): 16 hearts | normal rhythm maintained, % of the experiments ([1]; SkQ1 2.0 nmol/kg daily for 3 weeks): 58% | RZ/LV (risk zone/weight of the left ventricle), difference between the groups (Wistar male rats; 250 nmol/kg body weight/day, three weeks, 40 min occlusion, 60 min reperfusion): no differences | MI/RZ ratio (myocardial infarction/risk zone), times less as compared to the control (Wistar male rats; 250 nmol/kg body weight/day, three weeks, 40 min occlusion, 60 min reperfusion, P<0.005): 1.7 times | effect on blood pressure (Wistar male rats; [2]): No effect | effect on heart rate (Wistar male rats; [2]): No effect

CC1(C)CC(O)CC(C)(C)N1[O] [Tempol]
reduction of infarct size caused by subsequent ischemia/reperfusion (rat heart): 1.5 times

— patent US20130338115A1, “USE OF MITOCHONDRIALLY-ADDRESSED COMPOUNDS FOR PREVENTING AND TREATING CARDIOVASCULAR DISEASES” (Mitotech SA, priority 2007, published 2013)
